Assay results from patent US20260325473A1, “N-Beta-Hydroxybutyryl-Amino Acids and Related Compositions and Methods” (The Board of Trustees of the Leland Stanford Junior …, priority 2023, published 2026).

Tests used:
[1] = Human ketone ester supplementation study, plasma metabolites; type: in vivo; settings: 0.3 g/kg ketone ester, 60 min vs baseline
Procedure: Targeted metabolomics. Targeted measurements were performed using an Agilent 6470 triple quadrupole LC-MS instrument. MS analysis was performed using AJS in negative mode. The AJS source parameters were set as follows: the dry gas temperature was set at 250° C. with a gas flow of 12 l/min and the nebulizer pressure at 25 psi; the sheath gas temperature was set to 300° C. with the sheath gas flow set at 12 l/min; and the capillary voltage was set to 3,500 V. Separation of polar metabolites was performed as described above in the ‘Untargeted measurements of metabolites by LC-MS’ section. Multiple reaction monitoring was performed for the indicated metabolites with the listed dwell times, fragmentor voltage, collision energies, cell accelerator voltages and polarities. Quantification of the endogenous metabolite concentrations were performed by generating a standard curve with known concentrations of each metabolite. Metabolite standards were analyzed alongside the plasma samples using the same targeted triple quadrupole LC/MS method. A calibration standard curve generated from the metabolite standard concentrations and total peak areas were used to calculate the concentrations of each endogenous metabolite. The dilution of the plasma during the sample preparation was also taken into account for the quantification.
Human ketone ester supplementation study. Following screening, eligible subjects participated in a randomized, counter-balanced, double-blind, placebo-controlled crossover trial comparing BHB supplementation versus placebo, separated by a minimum of 2 days (ClinicalTrials.gov ID NCT04194450). Pre-menopausal women were tested in the follicular phase (days 3-9). Participants were asked to refrain from structured exercise and alcohol, limit physical activity, and follow a standardized diet (~50% carbohydrate, ~30% fat, ~20% protein) on the day before each trial. After refraining from medication use for 24 hours, participants reported to the Exercise, Metabolism and Inflammation Laboratory at the University of British Columbia-Okanagan in an overnight fasted state. Anthropometric measurements were obtained prior to insertion of an indwelling intravenous catheter into the antecubital vein for repeated blood sampling. Blood was collected into EDTA tubes (BD, 367863) and immediately centrifuged at 2000 rpm for 15 min and the top layer of plasma was aliquoted and frozen at −80 °C. After baseline (0) blood sample collection, the oral BHB supplement or placebo was consumed in liquid form (~30-65 mL). The BHB supplement (H.V.M.N®, USA) in the form of the ketone monoester (R)-3-hydroxybutyl (R)-3-hydroxybutyrate (AG®, TDeltaS, Oxford, UK) contained 0.4 g mL-1 BHB, natural flavoring, and <2% stevia leaf extract. The taste-matched placebo drink contained the same natural flavoring as the ketone supplement, stevia leaf extract, 5 mL of Bittrex stock (0.005 g of denatonium benzoate powder in 40 ml of water) and 1.5 mL of arrowroot stock (2 g of arrowroot powder in 50 ml of water) to match the bitter flavor and viscosity of the ketone monoester. Supplements were dispensed into opaque 80 ml bottles with volume calculated for 0.3 g BHB/kg body weight and labelled either A or B by a third-party researcher. Blinding was maintained until completion of data collection and analyses.

[2] = tested on: DIO mice; experiment: Chronic administration in DIO mice: body weight and food intake; type: in vivo, mouse; settings: for body weight, head-to-head keto amino acids: 5 days, vs vehicle
Procedure: General animal information. Animal experiments were performed according to procedure approved by the Stanford University Administrative Panel on Laboratory Animal Care (APLAC). Mice were maintained in 12-hr light-dark cycles at 22° C. and ~50% relative humidity and fed a standard irradiated rodent chow diet. Where indicated, high-fat diet (D12492, Research Diets 60% kcal from fat) and ketogenic diet (D06040601, Research Diets, 80% kcal fat/15% kcal protein/5% kcal carbohydrate) was used. Male C57BL/6J (stock no. 000664) and male C57BL/6J DIO mice (stock no. 380050) were purchased from Jackson Laboratory. Male C57BL/6NCrl (stock no. 027) mice were purchased from Charles River Laboratory. Whole body CNDP2-KO mice (catalog number, C57BL/6NCrl-Cndp2em1 (IMPC) Mbp/Mmucd, RRID: MMRRC_043492-UCD) were obtained from the Mutant Mouse Regional Resource Center, a NCRR-NIH funded strain repository. For in vivo injection of mice with metabolites, compounds were dissolved in 18:1:1 (by volume) of saline/Kolliphor EL (Sigma Aldrich)/DMSO. Compounds were administered to mice daily via intraperitoneal injections at 5 μl/g body weight at the indicated doses. For all injection experiments, mice were mock injected with the vehicle for 3-5 days until body weights have stabilized. Sample sizes were determined on the basis of previous experiments using similar methodologies. For metabolite administration experiments, mice were randomly assigned to treatment groups. Experimenters were not blinded to groups.

| SMILES | elevation of plasma keto amino acid after ketone ester drink [1] [fold] | body weight, head-to-head keto amino acids ([2]; 50 mg/kg/day IP) | food intake and body weight, related metabolites and dipeptides ([2]; 50 mg/kg IP, 9 days) | body weight and food intake, conjugate vs components ([2]; 50 mg/kg/day IP, BHB or phenylalanine at the same doses, 9 days) | body weight gain, 2-week study ([2]; 50 mg/kg/day IP, 2 weeks) | daily food intake, 2-week study ([2]; 50 mg/kg/day IP, 2 weeks) | body weight gain ([2]; 50 mg/kg/day IP, 10-day period) | suppression of daily food intake, average ([2]; 50 mg/kg/day IP, 10-day period) [%] | weight loss compared with pair-fed controls ([2]; 50 mg/kg/day IP, 6 days) |
| --- | --- | --- | --- | --- | --- | --- | --- | --- | --- |
| CC(O)CC(=O)N[C@H](C(=O)O)C(C)C (some centres unmarked) [BHB-Val, N-betahydroxybutyryl-valine] | 2.5 | effective in suppressing body weight |  |  |  |  |  |  |  |
| CC(O)CC(=O)N[C@@H](Cc1ccccc1)C(=O)O (some centres unmarked) [BHB-Phe, N-betahydroxybutyryl-phenylalanine] | 3 | effective in suppressing body weight | suppressed food intake and body weight | efficiently suppressed body weight and food intake | concomitant reduction in body weight gain | durable suppression of daily food intake | concomitant reduction in body weight gain | −30 | lost the same amount of weight as pair-fed controls |
